Consider 36 compounds from patent US8557848B2, “4,5-ring annulated indole derivatives for treating or preventing of HCV and related viral infections” (Merck Sharp & Dohme Corp., priority 2006, dated 2013).

Assay [1] concerns HCV replicon cells (replicon RNA level). Put plainly: Cell-Based HCV Replicon Assay. As to conditions: Hepatitis C virus, 72 h; replicon RNA level by real time PCR (Taqman), cells harvested on day 3; read-out: EC50. The method in brief: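 Replicon cells at 5000/well received 10 serial 2-fold compound dilutions in 0.5% DMSO, 5% FBS, harvested day 3. Replicon RNA quantified by multiplex Taqman RT-PCR on NS5B versus GAPDH; EC50 and EC90 taken at ΔCT = 1 and 3.2 above baseline from sigmoid fits.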

Assay [2] concerns the target T1, HCV NS5B polymerase (NS5BΔCT21, from HCV-Con 1 isolate, genotype 1b) (Hepatitis C virus genotype 1b, UniProt Q9WMX2).
T1 construct: A soluble C-terminal 21-amino acid truncated NS5B enzyme form; polyhistidine (C); made in house; host or cells: Escherichia coli
Put plainly: HCV NS5B Polymerase Inhibition Assay. The assay is classed as biochemical. The method in brief:
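His-tagged NS5BΔCT21 (30 or 150 nM) with 0.03 μM DCoH75 RNA template, 0.25 mM GAU, 0.1 μM ATP/GTP/UTP, 0.026 μM CTP plus [^33P]-CTP, pH 7.3, 2% DMSO; 2 h at 22° C. Incorporated radioactivity counted after filter capture. IC50 from 10-point 2-fold dilutions (top 200 μM to 1 μM) fitted to Hill equation.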

Setting [3] is: NS5B polymerase inhibition, [33P]-CTP incorporation, 22° C. for 2 hours, read-out: IC50.

Like-named read-outs stand apart in the source and are kept apart here.

A word on the EC50: it is the midpoint of the concentration-response curve. By IC50 is commonly meant the point on the concentration scale where inhibition reaches its midpoint. For `CC(C)(C)C(=O)OCOC(=O)c1c(-c2cccn(COC(=O)C(C)(C)C)c2=O)c2c3occc3c(F)cc2n1Cc1cc(=O)n(COC(=O)C(C)(C)C)cc1F` [Compound 228], in assay [1], the EC50 was less than 500 nM. In assay [2], this compound had an IC50 greater than 100 nM.
In the case of `O=C(O)c1c(-c2ccc[nH]c2=O)c2c3ccoc3ccc2n1Cc1ccccc1F` [Compound 39], the EC50 in assay [1] is greater than 1500 nM. The IC50 in assay [2] (setting [3]) was in the range of 25 to 100 nM.
The like results for `O=C(O)c1c(-c2ccc[nH]c2=O)c2c3occc3c(F)cc2n1Cc1ccc2[nH]c(=O)[nH]c2c1` [Compound 103] were, in that order, less than 500 nM and less than 25 nM.
The like results for `NC(=O)c1cnc(F)c(Cn2c(C(=O)O)c(-c3ccc[nH]c3=O)c3c4c(c(F)cc32)CCO4)c1` [Compound 113] were, in that order, less than 500 nM and less than 25 nM.
Turning to `CC(C)(C)OC(=O)N(C(=O)OC(C)(C)C)c1cc(Cn2c(C(=O)NS(=O)(=O)C3CC3)c(-c3ccc[nH]c3=O)c3c4occc4c(F)cc32)c(F)cn1` [Compound 227], the EC50 in assay [1] was less than 500 nM. Further, in assay [2] (setting [3]), the IC50 was greater than 100 nM.
Consider `Nc1cc(Cn2c(C(=O)O)c(-c3ccc[nH]c3=O)c3c4ncsc4ccc32)ccn1` [Compound 14], for which, in assay [1], the EC50 fell in the range of 500 to 1500 nM. Further, the IC50 in assay [2] (setting [3]) was less than 25 nM.
Regarding `O=C(O)c1c(-c2ccc[nH]c2=O)c2c3occc3c(F)cc2n1Cc1ccccc1F` [Compound 79], the 50% effective concentration (EC50) in assay [1] is less than 500 nM. For the same compound, the IC50 in assay [2] (setting [3]) was less than 25 nM.
In the case of `O=C(NC1CC1)c1ccc(F)c(Cn2c(C(=O)NS(=O)(=O)C3CC3)c(-c3ccc[nH]c3=O)c3c4occc4c(F)cc32)c1` [Compound 221], the EC50 in assay [1] was greater than 1500 nM. Further, the IC50 in assay [2] (setting [3]) was less than 25 nM.
Taken in the same sequence, the figures for `CS(=O)(=O)NC(=O)c1c(-c2ccc[nH]c2=O)c2c3occc3c(F)cc2n1Cc1ccc2[nH]c(N)nc2c1` [Compound 169] were less than 500 nM and less than 25 nM.
Taken in the same sequence, the figures for `CS(=O)(=O)NC(=O)c1c(-c2ccc[nH]c2=O)c2c3occc3c(F)cc2n1Cc1cc(F)ccc1F` [Compound 150] were less than 500 nM and less than 25 nM.
The like results for `O=C(O)c1c(-c2ccc[nH]c2=O)c2c3occ(Cl)c3c(F)cc2n1Cc1cc(F)ccc1F` [Compound 119] were, in that order, less than 500 nM and less than 25 nM.
Consider `O=c1[nH]cccc1-c1c(C2=NS(=O)(=O)c3ccccc3N2)n(Cc2ccccc2F)c2cc(F)c3ccoc3c12` [Compound 184], for which the EC50 in assay [1] was less than 500 nM. Also, the IC50 in assay [2] (setting [3]) was less than 25 nM.
Consider `CC(C)S(=O)(=O)NC(=O)c1c(-c2ccc[nH]c2=O)c2c3occc3c(F)cc2n1Cc1ccccc1F` [Compound 163], for which the EC50 in assay [1] is less than 500 nM. The IC50 in assay [2] (setting [3]) is less than 25 nM.
Taken in the same sequence, the figures for `O=C(NS(=O)(=O)C1CC1)c1c(-c2ccc[nH]c2=O)c2c3occc3c(F)cc2n1Cc1cc(F)ccc1F` [Compound 177] were less than 500 nM and less than 25 nM.
The like results for `NCc1ccc(Cn2c(C(=O)O)c(-c3ccc[nH]c3=O)c3c4occc4c(F)cc32)cc1` [Compound 82] were, in that order, less than 500 nM and less than 25 nM.
The like results for `O=C(O)c1c(-c2ccc[nH]c2=O)c2c3occc3c(F)cc2n1Cc1ccc2[nH]c(C(F)(F)F)nc2c1` [Compound 145] were, in that order, 500 to 1500 nM and less than 25 nM.
For `O=C(O)c1c(-c2ccc[nH]c2=O)c2c3occc3c(F)cc2n1Cc1cc(F)ccc1F` [Compound 89], the EC50 in assay [1] was less than 500 nM. Moreover, in assay [2] (setting [3]), the IC50 is less than 25 nM.
The like results for `O=C(NS(=O)(=O)C1CC1)c1c(-c2ccc[nH]c2=O)c2c3occc3c(F)cc2n1Cc1cc(Cl)nc2ccccc12` [Compound 210] were, in that order, 500 to 1500 nM and less than 25 nM.
Taken in the same sequence, the figures for `NC(=O)c1cccc(Cn2c(C(=O)O)c(-c3ccc[nH]c3=O)c3c4occc4c(F)cc32)c1` [Compound 92] were less than 500 nM and less than 25 nM.
Taken in the same sequence, the figures for `Cc1ccccc1Cn1c(C(=O)NS(C)(=O)=O)c(-c2ccc[nH]c2=O)c2c3occc3ccc21` [Compound 61] were less than 500 nM and less than 25 nM.
As for `O=C(O)c1c(-c2ccc[nH]c2=O)c2c3occc3c(F)cc2n1Cc1cc(=O)[nH]c2ccccc12` [Compound 114], in assay [1], the EC50 was less than 500 nM. In assay [2], this compound displayed an IC50 of less than 25 nM.
`CS(=O)(=O)Nc1cccc(S(=O)(=O)NC(=O)c2c(-c3ccc[nH]c3=O)c3c4ccoc4ccc3n2Cc2ccc(F)cc2F)c1` [Compound 11]: in assay [1], the EC50 was greater than 1500 nM. For the same compound, the IC50 in assay [2] (setting [3]) is 25 to 100 nM.
The like results for `O=C(O)c1c(-c2ccc[nH]c2=O)c2c3occc3c(F)cc2n1Cc1cc2ccccc2[nH]c1=O` [Compound 115] were, in that order, less than 500 nM and less than 25 nM.
The like results for `NC(=O)c1ncc(Cn2c(C(=O)O)c(-c3ccc[nH]c3=O)c3c4occc4c(F)cc32)s1` [Compound 98] were, in that order, 500 to 1500 nM and 25 to 100 nM.
Taken in the same sequence, the figures for `CCc1coc2c1ccc1c2c(-c2ccc[nH]c2=O)c(C(=O)O)n1Cc1cc(F)ccc1F` [Compound 24] were greater than 1500 nM and greater than 100 nM.
As to `O=C(NS(=O)(=O)C1CC1)c1c(-c2ccc[nH]c2=O)c2c3occc3c(F)cc2n1Cc1cc2nc[nH]c2cc1Cl` [Compound 205], the EC50 in assay [1] is less than 500 nM. In assay [2] (setting [3]), the IC50 is less than 25 nM.
Taken in the same sequence, the figures for `CS(=O)(=O)NC(=O)c1c(-c2ccc[nH]c2=O)c2c3occc3c(F)cc2n1Cc1cc(C(N)=O)ccc1F` [Compound 175] were less than 500 nM and less than 25 nM.
Take `Nc1nc2cc(Cn3c(C(=O)O)c(-c4ccc[nH]c4=O)c4c5occc5c(F)cc43)ccc2[nH]1` [Compound 101]: in assay [1], the EC50 is less than 500 nM. Also, in assay [2] (setting [3]), the IC50 was less than 25 nM.
With `CC(C)S(=O)(=O)NC(=O)c1c(-c2ccc[nH]c2=O)c2c3c(c(F)cc2n1Cc1csc(C(N)=O)c1)CCO3` [Compound 188], in assay [1], the EC50 was less than 500 nM. The IC50 in assay [2] (setting [3]) is less than 25 nM.
The like results for `O=C(NS(=O)(=O)C1CC1)c1c(-c2ccc[nH]c2=O)c2c3occc3cc(F)c2n1Cc1cc(F)ccc1F` [Compound 178] were, in that order, less than 500 nM and less than 25 nM.
The like results for `NC(=O)c1cc(Cn2c(C(=O)NS(=O)(=O)C3CC3)c(-c3ccc[nH]c3=O)c3c4c(c(F)cc32)CCO4)cs1` [Compound 185] were, in that order, less than 500 nM and less than 25 nM.
Taken in the same sequence, the figures for `CC(C)S(=O)(=O)NC(=O)c1c(-c2ccc[nH]c2=O)c2c3c(c(F)cc2n1Cc1cc2ccccc2nc1Cl)CCO3` [Compound 216] were less than 500 nM and less than 25 nM.
On to `CS(=O)(=O)NC(=O)c1c(-c2ccc[nH]c2=O)c2c3occc3c(F)cc2n1Cc1cc(C(=O)NC2CC2)ccc1F` [Compound 206], for which the EC50 in assay [1] is 500 to 1500 nM. Also, in assay [2] (setting [3]), the IC50 was less than 25 nM.
Turning to `O=C(NS(=O)(=O)C1CC1)c1c(-c2ccc[nH]c2=O)c2c3occc3c(F)cc2n1Cc1cc2c(=O)[nH]cnc2cc1F` [Compound 212], the half-maximal effective concentration (EC50) in assay [1] is less than 500 nM. For the same compound, the IC50 in assay [2] was less than 25 nM.
With `COc1ccc2cc(Cn3c(C(=O)O)c(-c4ccc[nH]c4=O)c4c5occc5c(F)cc43)c(Cl)nc2c1` [Compound 153], in assay [1], the EC50 was less than 500 nM. In assay [2] (setting [3]), the IC50 is less than 25 nM.
The like results for `O=C(O)c1c(-c2ccc[nH]c2=O)c2c3occc3c(F)cc2n1Cc1cc2c(=O)[nH]cnc2cc1F` [Compound 127] were, in that order, less than 500 nM and less than 25 nM.
